Values joined by “and” are separate entries in the source; they are usually repeats but may differ in a detail not shown here. Equal values may be shown once.
Tests used:
hSTING-H232 = target: T1, hSTING-H232 (Homo sapiens, UniProt Q86WV6); assay: HTRF STING competition binding (cGAMP displacement) assay, hSTING-H232; conditions: for IC50: HTRF displacement assay, means from at least three repeated experiments; for binding to hSTING-H232 in displacement assay, in words: concentrations up to 100 μM
T1 construct: purchased Cisbio
Experimental: (§1) Mouse STING binding kits, human STING WT binding kits, human AQ STING binding kits, human H232 STING binding kits were purchased from Cisbio. […] QUANTI-Blue solution, QUANTI-Luc, 2′,3′-cGAMP were purchased from Invivogen. […] CellTiter-Glo luminescent cell viability assay kit was obtained from Promega.
(§2) According to the instructions of STING binding kits, the following solutions were successively added to each well in the 384-well plate: 5 μL of the detection compounds or 2′,3′-cGAMP (positive control) with different concentrations or diluent (negative control); 5 μL of human STING 6His-tagged protein (negative control well was added to detection buffer); 10 μL of STING ligand d2 and Anti 6His-Tb3^+ premixed working solution.

hSTING-AQ = target: T2, hSTING-AQ (Homo sapiens, UniProt Q86WV6, G230A/R293Q); assay: HTRF STING competition binding (cGAMP displacement) assay, hSTING-AQ; conditions: for IC50: HTRF displacement assay, means from at least three repeated experiments; for binding to hSTING-AQ in displacement assay, in words: concentrations up to 100 μM
T2 construct: purchased Cisbio
Experimental: as §1, §2

mSTING [1] = target: T3, mSTING (Mus musculus, UniProt Q3TBT3); assay: HTRF STING competition binding (cGAMP displacement) assay, mSTING; design: purchased Cisbio; conditions: for IC50: HTRF displacement assay, means from at least three repeated experiments; for binding to mSTING in displacement assay, in words: concentrations up to 100 μM
T3 sequence (Q3TBT3 1-378): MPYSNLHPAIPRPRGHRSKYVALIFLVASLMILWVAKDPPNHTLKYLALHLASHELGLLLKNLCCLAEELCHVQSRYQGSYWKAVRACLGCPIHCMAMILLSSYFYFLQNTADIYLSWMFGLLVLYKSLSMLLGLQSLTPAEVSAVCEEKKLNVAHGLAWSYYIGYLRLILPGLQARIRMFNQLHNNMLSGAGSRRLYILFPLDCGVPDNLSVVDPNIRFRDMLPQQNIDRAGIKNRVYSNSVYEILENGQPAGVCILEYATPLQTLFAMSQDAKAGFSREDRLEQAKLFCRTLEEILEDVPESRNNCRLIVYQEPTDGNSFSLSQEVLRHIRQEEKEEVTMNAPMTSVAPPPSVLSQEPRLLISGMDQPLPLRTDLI
Experimental: as §1, §2

hSTING-WT = target: T4, hSTING-WT (Homo sapiens, UniProt Q86WV6, H232R); assay: HTRF STING competition binding (cGAMP displacement) assay, hSTING-WT; conditions: for IC50: HTRF displacement assay, means from at least three repeated experiments; for binding to hSTING-WT in displacement assay, in words: concentrations up to 100 μM
T4 construct: purchased Cisbio
Experimental: as §1, §2

hSTING-R232 = hSTING-R232 (Homo sapiens, UniProt Q86WV6, H232R); assay: Cellular assay for STING inhibitory activity, 293T hSTING-R232 cells stimulated with 2′,3′-cGAMP (SEAP); conditions: for inhibitory potency in human STING reporter cells, initial screen: compound at 100 μM
mSTING [2] = target: T3, mSTING; assay: Cellular assay for STING inhibitory activity, 293T mSTING cells stimulated with 2′,3′-cGAMP (SEAP); conditions: for inhibitory potency in murine STING reporter cells, initial screen: compound at 100 μM
mSTING [3] = target: T3, mSTING; design: purchased Cisbio; method as in PMID 31927317; conditions: STING reporter cells, agonist activity; cited from earlier work
hSTING [4] = tested on: hSTING; design: method as in PMID 31927317; conditions: STING competition binding kits; cited from earlier work
hSTING [5] = tested on: hSTING; design: method as in PMID 31927317; conditions: STING reporter cells, agonist activity; cited from earlier work
THP-1 cells = assay: CellTiter-Glo luminescent cell viability assay, THP-1 cells; conditions: 5 to 100 μM, 48 h
293T cells = assay: CellTiter-Glo luminescent cell viability assay, 293T cells; conditions: 5 to 100 μM, 48 h
[6] = tested on: STING-triggered NF-κB pathway; assay: Inhibition of STING dual pathways, THP1-KI-hSTING-R232 cells, NF-κB (SEAP); conditions: THP1-hSTING-R232 cells stimulated with 2′,3′-cGAMP, 24 h; 11 20 µM, 27 33 µM, H151 2 µM
Excerpt: (§3) After the THP-1 reporter cell line stimulation with 2′,3′-cGAMP, we added STING inhibitors with appropriate concentrations for inhibiting the inductions of I IFN and proinflammatory cytokine. […] In addition, to exclude the effect of cytotoxicity of the compounds on the inhibitory activity, we used the CellTiter-Glo kit to assay cellular activity.

[7] = tested on: STING-triggered IRF pathway; assay: Inhibition of STING dual pathways, THP1-KI-hSTING-R232 cells, IRF (Lucia luciferase); conditions: THP1-hSTING-R232 cells stimulated with 2′,3′-cGAMP, 24 h; 11 20 µM, 27 33 µM, H151 2 µM
Excerpt: as §3

Chain of hSTING-R232 (Q86WV6 whole entry H232R): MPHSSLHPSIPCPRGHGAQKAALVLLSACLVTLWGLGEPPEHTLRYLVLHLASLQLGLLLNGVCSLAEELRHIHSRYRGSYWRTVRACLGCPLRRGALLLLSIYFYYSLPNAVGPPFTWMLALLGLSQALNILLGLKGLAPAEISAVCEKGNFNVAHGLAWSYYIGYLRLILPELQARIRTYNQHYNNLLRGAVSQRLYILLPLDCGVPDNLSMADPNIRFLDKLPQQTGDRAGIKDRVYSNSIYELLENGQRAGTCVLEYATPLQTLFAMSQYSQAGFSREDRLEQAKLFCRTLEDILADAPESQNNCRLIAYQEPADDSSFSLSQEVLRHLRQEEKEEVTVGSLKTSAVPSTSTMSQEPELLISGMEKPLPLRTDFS
T4 sequence (Q86WV6 whole entry H232R): as above
T1 sequence (Q86WV6 135-379 limits assumed): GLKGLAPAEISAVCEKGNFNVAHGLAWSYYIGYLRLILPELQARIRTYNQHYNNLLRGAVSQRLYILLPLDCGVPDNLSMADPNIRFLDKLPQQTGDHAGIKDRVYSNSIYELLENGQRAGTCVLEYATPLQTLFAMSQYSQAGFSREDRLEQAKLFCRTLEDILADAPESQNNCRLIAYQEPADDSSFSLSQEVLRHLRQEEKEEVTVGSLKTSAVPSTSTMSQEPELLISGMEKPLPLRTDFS
T2 sequence (Q86WV6 whole entry G230A/R293Q): as the sequence (Q86WV6 whole entry H232R) above, with G230A, R232H, R293Q counted along it

Structure (SMILES): COc1cc2c(=O)c3cccc4c3n(c2c(C)c1C)C(=O)C4 [Compound 3]
- IC50 (hSTING-H232): 36 µM
- binding to hSTING-H232 in displacement assay, in words (hSTING-H232): IC50 values at the micromolar level
- IC50 (hSTING-AQ): 58.2 µM
- binding to hSTING-AQ in displacement assay, in words (hSTING-AQ): IC50 values at the micromolar level
- IC50 (mSTING [1]): 33.3 µM
- IC50 (hSTING-WT): 18.3 µM
- binding to hSTING-WT in displacement assay, in words (hSTING-WT): IC50 values at the micromolar level
- inhibitory potency in human STING reporter cells, initial screen (hSTING-R232): not being as effective
- inhibitory potency in murine STING reporter cells, initial screen (mSTING [2]): not being as effective
- EC50 (mSTING [3]): 66.5 ± 10.5 µM
- IC50 (hSTING [4]): 10.3 µM
- EC50 (hSTING [5]): 154 ± 9.6 µM

Structure (SMILES): COc1cc2c(=O)c3cccc(CC(=O)O)c3[nH]c2c(C)c1C [Compound 4]
- IC50 (hSTING-H232): 43.8 µM
- binding to hSTING-H232 in displacement assay, in words (hSTING-H232): IC50 values at the micromolar level
- IC50 (hSTING-AQ): 47.6 µM
- binding to hSTING-AQ in displacement assay, in words (hSTING-AQ): IC50 values at the micromolar level
- IC50 (mSTING [1]): 28.2 µM
- IC50 (hSTING-WT): 21.1 µM
- binding to hSTING-WT in displacement assay, in words (hSTING-WT): IC50 values at the micromolar level
- inhibitory potency in human STING reporter cells, initial screen (hSTING-R232): not being as effective
- inhibitory potency in murine STING reporter cells, initial screen (mSTING [2]): not being as effective
- EC50 (mSTING [3]): 72.3 ± 11.1 µM
- IC50 (hSTING [4]): 13.1 µM
- EC50 (hSTING [5]): 135 ± 12.1 µM

Structure (SMILES): COc1cc2c(=O)c3ccccc3[nH]c2c(C)c1C [Compound 9, 2-methoxy-3,4-dimethylacridin-9(10H)-one]
- IC50 (hSTING-H232): > 100 µM
- binding to hSTING-H232 in displacement assay, in words (hSTING-H232): cannot bind to STING
- IC50 (hSTING-AQ): > 100 µM
- binding to hSTING-AQ in displacement assay, in words (hSTING-AQ): cannot bind to STING
- IC50 (mSTING [1]): > 100 µM
- binding to mSTING in displacement assay, in words (mSTING [1]): cannot bind to STING
- IC50 (hSTING-WT): > 100 µM
- binding to hSTING-WT in displacement assay, in words (hSTING-WT): cannot bind to STING

Structure (SMILES): CCOC(=O)Cn1c2ccccc2c(=O)c2cc(OC)c(C)c(C)c21 [Compound 10, Ethyl 2-(2-methoxy-3,4-dimethyl-9-oxoacridin-10 (9H)-yl)acetate]
- IC50 (hSTING-H232): > 100 µM
- binding to hSTING-H232 in displacement assay, in words (hSTING-H232): cannot bind to STING
- IC50 (hSTING-AQ): > 100 µM
- binding to hSTING-AQ in displacement assay, in words (hSTING-AQ): cannot bind to STING
- IC50 (mSTING [1]): > 100 µM
- binding to mSTING in displacement assay, in words (mSTING [1]): cannot bind to STING
- IC50 (hSTING-WT): > 100 µM
- binding to hSTING-WT in displacement assay, in words (hSTING-WT): cannot bind to STING

Structure (SMILES): COc1cc2c(=O)c3ccccc3n(CC(=O)O)c2c(C)c1C [Compound 11, 2-(2-methoxy-3,4-dimethyl-9-oxoacridin-10(9H)-yl)acetic acid]
- IC50 (hSTING-H232): < 20 µM and 12.1 µM
- IC50 (hSTING-AQ): < 20 µM and 14.3 µM
- IC50 (mSTING [1]): < 20 µM and 19 µM
- cytotoxicity, cell viability THP-1 cells (THP-1 cells): no evidence of cytotoxicity
- IC50 (hSTING-WT): < 20 µM and 5.81 µM
- cytotoxicity, cell viability 293T cells (293T cells): no evidence of cytotoxicity
- IC50 (hSTING-R232): 19.9 µM
- inhibitory potency in human STING reporter cells, initial screen (hSTING-R232): excellent inhibition
- IC50 (mSTING [2]): 15.5 µM
- inhibitory potency in murine STING reporter cells, initial screen (mSTING [2]): excellent inhibition
- inhibition of STING-triggered NF-κB pathway activation [6]: significantly inhibited
- inhibition of STING-triggered IRF pathway activation [7]: significantly inhibited

Structure (SMILES): COc1cc2c(=O)c3c(Cl)ccc4c3n(c2c(C)c1C)C(=O)C4 [Compound 25, 5-chloro-8-methoxy-9,10-dimethyl-6H-pyrrolo [3,2,1-de]acridine-1,6(2H)-dione]
- IC50 (hSTING-H232): 37.7 µM
- IC50 (hSTING-AQ): 48 µM
- IC50 (mSTING [1]): 32.4 µM
- IC50 (hSTING-WT): 78.1 µM

Structure (SMILES): COc1cc2c(=O)c3cc(Cl)cc4c3n(c2c(C)c1C)C(=O)C4 [Compound 26, 4-chloro-8-methoxy-9,10-dimethyl-6H-pyrrolo[3,2,1-de]acridine-1,6(2H)-dione]
- IC50 (hSTING-H232): 79.1 µM
- IC50 (hSTING-AQ): 65.1 µM
- IC50 (mSTING [1]): 51.5 µM
- IC50 (hSTING-WT): > 100 µM

Structure (SMILES): COc1cc2c(=O)c3c(F)ccc4c3n(c2c(C)c1C)C(=O)C4 [Compound 27, 5-fluoro-8-methoxy-9,10-dimethyl-6H-pyrrolo[3,2,1-de]acridine-1,6(2H)-dione]
- IC50 (hSTING-H232): 6.57 µM
- binding to hSTING-H232 in displacement assay, in words (hSTING-H232): single-digit micromolar activity
- IC50 (hSTING-AQ): 5.82 µM
- binding to hSTING-AQ in displacement assay, in words (hSTING-AQ): single-digit micromolar activity
- IC50 (mSTING [1]): 3.88 µM
- binding to mSTING in displacement assay, in words (mSTING [1]): single-digit micromolar activity
- IC50 (hSTING-WT): 7.67 µM
- binding to hSTING-WT in displacement assay, in words (hSTING-WT): single-digit micromolar activity
- IC50 (hSTING-R232): 38.8 µM
- inhibitory potency in human STING reporter cells, initial screen (hSTING-R232): excellent inhibition
- IC50 (mSTING [2]): 30.8 µM
- inhibitory potency in murine STING reporter cells, initial screen (mSTING [2]): excellent inhibition
- inhibition of STING-triggered NF-κB pathway activation [6]: significantly inhibited
- inhibition of STING-triggered IRF pathway activation [7]: significantly inhibited

From PMC10095708, “Discovery of Novel STING Inhibitors Based on the Structure of the Mouse STING Agonist DMXAA” (Molecules, 2023)
